Legend:
Pseudomonas CH07 [1] = assay: Degradation of PCB congeners of Clophen A-50 by Pseudomonas CH07 in seawater nutrient broth, GC-ECD analysis; settings: for Degradation Of PCBs: 40 hrs incubation with Pseudomonas CH07, versus control; for Conc. of PCBs in Test sol. (incubation) 40 hrs.: incubation with Pseudomonas CH07 for 40 hrs, Clophen A-50 100 ppm in seawater nutrient broth
Method: A defined seawater nutrient broth medium (code no. 088 from Himedia, Bombay) containing beef extract 3 g L^−1, peptic digest of animal tissue 5 g L^−1 was used. One liter of medium contained 500 ml seawater and 500 ml distilled water and the final pH was adjusted to 7 using 0.1 N NaOH. After autoclaving, the required amount of stock solution (10,000 ppm) of Clophen A-50 was added to the medium in sterile condition to achieve a final concentration of 100 ppm. Immediately after adding the stock PCBs solution, the hexane part of it was evaporated out by gently swirling the flask in sterile condition and sterile glycerol was added to the medium in a 1:1 ratio of stock solution:glycerol. 40 μl of 24 hold culture of Pseudomonas CH07 growths was added in two replicates of 20 ml of test (seawater nutrient broth+Clophen A-50) medium to seawater nutrient broth (without any addition of Clophen A-50). Controls in duplicate were also maintained without the addition of the organism at room temperature (ca. 28°±2° C.). Control and test cultures were maintained at room temperature for two days and at various predecided intervals of time, the samples was taken out aseptically and prepared for GC analysis. The details of the sample preparation is described below.
The PCBs were analyzed following the method described by Boon et al. The method was standardized in our laboratory using the PCBs standards obtained from Promochem, Germany as well as other analytical grade chemicals from E. Merck. The purity of the solvents was checked by Gas chromatography for each of the bottles. The different adsorbents, alumina, silica, were purified by soxhlet extraction with di-chloro-methane (HPLC grade) for about eight hours. The anhydrous Na2SO4 and the glass wool were also purified by Soxhlet extraction with HPLC grade di-chloro methane. The different steps of the analytical methods are illustrated below:
i. Aliquot of 1 ml sample was treated with 1 ml n-hexane (HPLC grade) thrice and thoroughly mixed by a vortex mixture for five minutes each time. The upper part of the solvent layer (solvent extract) was separated with the help of micropipette and transferred to a sterilized glass tube.
ii. Concentrate the solvent extract to 1 ml by evaporation with Snyder column evaporator on a water bath at 85° C.
iii. Purify of the solvent extract by alumina clean up using micro-column technique.
iv. Concentrate the solvent extract to 1 ml by evaporation with Snyder column evaporator on a water bath at 85° C.
v. Isolate PCBs from polar chlorinated compounds by eluting through micro-column of silica.
vi. Concentrate the PCBs fraction to 1 ml by evaporation with Snyder column evaporator on a water bath at 85° C.
vii. Analyze the aliquot by GC-ECD with reference to standard PCBs (individual congeners).
The samples were analyzed by gas chromatography (Varian GC-3380) coupled with an electron capture detector and an autosampler 8200. Capillary column VA-5 (30 m×0.25 mm) was employed with electron capture detector […] for peak detection. Argon with 5% methane was the carrier gas. A temperature program was used (table. 3). […] The experimental condition of the instrument is illustrated in the table-4. The analysis of PCBs was calibrated using the standards for individual congeners of PCBs obtained from Promochem, Germany. Using different dilutions of the stock solution of the standards carried out the calibration of each of the individual congeners. The linearity of the calibration curve was determined with a range of dilution of the mix-standards.

Pseudomonas CH07 [2] = assay: Taxonomical characteristics: growth of Pseudomonas CH07 on antibiotics; type: cell-based; set-up: key: −: negative response (no growth); +: positive response (slight or moderate growth); ++: very good response (good growth); settings: Table 1, taxonomical tests

Compound | Degradation Of PCBs (Pseudomonas CH07 [1]) [%] | Growth on (Response) (Pseudomonas CH07 [2]) | Conc. of PCBs in Test sol. (incubation) 40 hrs. (Pseudomonas CH07 [1]) [ng/mL]
Clc1ccc(-c2ccc(Cl)c(Cl)c2Cl)c(Cl)c1Cl [CB-128, 2,2′,3,3′,4,4′-Hexachloro] | 64.33 | – | –
[H]/N=C(/N)N[C@H]1[C@H](O)[C@@H](O)[C@H](O[C@@H]2O[C@@H](C)[C@](O)(C=O)[C@H]2O[C@@H]2O[C@@H](CO)[C@H](O)[C@@H](O)[C@@H]2NC)[C@@H](N/C(N)=N\[H])[C@@H]1O [Streptomycin] | – | ++ | –
Neomycin | – | ++ | –
Clc1ccc(-c2cc(Cl)c(Cl)cc2Cl)cc1Cl [CB-118, 2,3′,4,4′,5-Pentachloro] | 40.72 | – | –
NC[C@H]1O[C@H](O[C@H]2[C@H](O)[C@@H](O[C@H]3O[C@H](CO)[C@@H](O)[C@H](N)[C@H]3O)[C@H](N)C[C@@H]2N)[C@H](O)[C@@H](O)[C@@H]1O [Kanamycin] | – | ++ | –
Clc1ccc(-c2ccc(Cl)c(Cl)c2)cc1Cl [CB-77, 3,3′,4,4′-tetrachlorobiphenyl] | 24.25 | – | 40.42
Clc1ccc(-c2cc(Cl)c(Cl)c(Cl)c2)cc1Cl [CB-126, 3,3′,4,4′,5-Pentachloro] | 100 | – | 00.00
CN(C)[C@@H]1C(O)=C(C(N)=O)C(=O)[C@@]2(O)C(O)=C3C(=O)c4c(O)cccc4[C@@](C)(O)[C@H]3C[C@@H]12 [Tetracycline] | – | ++ | –
Clc1ccc(Cl)c(-c2cc(Cl)c(Cl)cc2Cl)c1 [CB-101, 2,2′,4,5,5′-Pentachloro] | 20.19 | – | –
Clc1cc(Cl)c(-c2ccc(Cl)c(Cl)c2Cl)cc1Cl [CB-138, 2,2′,3,4,4′,5′-Hexachloro] | 55.97 | – | –
Clc1c(Cl)c(Cl)c(-c2ccccc2)c(Cl)c1Cl [CB-116, 2,3,4,5,6-Pentachloro] | 20.04 | – | 8.06
Clc1ccc(-c2c(Cl)c(Cl)c(Cl)c(Cl)c2Cl)c(Cl)c1 [CB-181, 2,2′,3,4,4′,5,6-Heptachloro] | 100 | – | –
Clc1ccc(Cl)c(-c2c(Cl)c(Cl)cc(Cl)c2Cl)c1 [CB-151, 2,2′,3,5,5′,6-Hexachloro] | 37.32 | – | –
CN(C)[C@@H]1C(O)=C(C(N)=O)C(=O)[C@@]2(O)C(O)=C3C(=O)c4c(O)ccc(Cl)c4[C@@H](O)[C@H]3C[C@@H]12 [Demechlocyclin] | – | ++ | –
Clc1ccc(-c2ccc(Cl)c(Cl)c2Cl)cc1Cl [CB-105, 2,3,3′,4,4′-Pentachloro] | 46.69 | – | –
Clc1cc(Cl)c(-c2cc(Cl)c(Cl)c(Cl)c2Cl)cc1Cl [CB-180, 2,2′,3,4,4′,5,5′-Heptachloro] | 61.33 | – | –
Clc1ccc(Cl)c(-c2cc(Cl)c(Cl)c(Cl)c2Cl)c1 [CB-141, 2,2′,3,4,5,5′-Hexachloro] | 55.38 | – | –
Clc1cc(Cl)c(-c2cccc(Cl)c2Cl)cc1Cl [CB-97, 2,2′,3′,4,5-Pentachloro] | 19.69 | – | –
Clc1cc(Cl)c(-c2ccc(Cl)c(Cl)c2)c(Cl)c1 [CB-119, 2,3′,4,4′,6-Pentachloro] | 19.66 | – | 6.48

Source: US6544773B1, “Microbial process for degradation of PCBS in clophen A-50 using a novel marine microorganism, Pseudomonas CH07” (priority 2001, dated 2003)
